Measurements from patent US8609719B2, “Propargylated aminoindans, processes for preparation, and uses thereof” (priority 2006, dated 2013).

Tests used:
MAO-A = target: T1, MAO-A (Homo sapiens, UniProt P21397); assay: Decrease of plasma DHPG in patients (HPLC analysis of MAO-A inhibition); type: in vivo
T1 construct: from tissue; host or cells: patients in vivo; DHPG measured in plasma
T1 sequence (P21397 1-527): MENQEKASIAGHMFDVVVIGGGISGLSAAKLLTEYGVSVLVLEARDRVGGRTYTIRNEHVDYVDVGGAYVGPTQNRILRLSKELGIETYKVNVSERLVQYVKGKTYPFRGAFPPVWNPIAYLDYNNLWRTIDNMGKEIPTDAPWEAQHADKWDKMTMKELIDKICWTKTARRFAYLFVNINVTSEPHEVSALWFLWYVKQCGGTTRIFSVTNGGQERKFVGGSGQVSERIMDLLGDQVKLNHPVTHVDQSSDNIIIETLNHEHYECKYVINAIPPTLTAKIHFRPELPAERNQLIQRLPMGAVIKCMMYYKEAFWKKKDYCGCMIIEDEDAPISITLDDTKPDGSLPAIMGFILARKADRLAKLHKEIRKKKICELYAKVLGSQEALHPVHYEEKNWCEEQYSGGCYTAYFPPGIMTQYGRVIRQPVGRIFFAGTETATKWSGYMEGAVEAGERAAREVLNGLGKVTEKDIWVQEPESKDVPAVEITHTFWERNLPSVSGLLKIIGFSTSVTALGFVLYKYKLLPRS
Experimental: 8 patients, 7 female and 1 male, ages 62-81 with a median age of 68 and above with diagnosis of probable Alzheimer's disease according to DSM-IV (290.00 or 290.10) and NINCDS-ADRDA criteria were administered ladostigil tartrate according to the following schedule:
Decrease of 3,4-dihydroxyphenylglycol (“DHPG”) in plasma is indicative of monoamine oxidase inhibition, especially in the brain. DHPG plasma concentrations were measured in 6 of the aforementioned patients at baseline and at termination analysis, using HPLC equipped with an electrochemical detector.
The decrease in DHPG concentration in the six patients was determined. The average decrease in DHPG concentration was determined to be 57% with a standard deviation of 29.

Cholinesterase = Cholinesterase inhibition in patients at pre-dose; type: in vivo, human; settings: at maintenance and at termination analyses
Experimental: 8 patients, 7 female and 1 male, ages 62-81 with a median age of 68 and above with diagnosis of probable Alzheimer's disease according to DSM-IV (290.00 or 290.10) and NINCDS-ADRDA criteria were administered ladostigil tartrate according to the following schedule: […]

clinical = settings: human, in vivo; for Cmax / AUC / AUC(0-t): 100 mg, after ladostigil tartrate 100 mg twice daily; for AUC: AUC (M)

With C#CCN[C@@H]1CCc2ccc(OC(=O)N(C)CC)cc21 [ladostigil, R(+)-6-(N-methyl, N-ethyl-carbamoyloxy)-N′-propargyl-1-aminoindan] the “DHPG (T)” value (MAO-A; Patient 1, termination analysis Week 9 vs baseline) was −63%, the “DHPG (T)” value (MAO-A; Patient 2, termination analysis Week 9 vs baseline) was −86% and the “DHPG (T)” value (MAO-A; Patient 5, termination analysis Week 9 vs baseline) was over −79%. The “DHPG (T)” value (MAO-A; Patient 6, termination analysis Week 9 vs baseline) was −73%, the “DHPG (T)” value (MAO-A; Patient 7, termination analysis Week 9 vs baseline) was −30% and the “DHPG (T)” value (MAO-A; Patient 8, termination analysis Week 9 vs baseline) was −13%. The “Cholinesterase inhibition at pre-dose, in words” value (Cholinesterase) was “evident”, the half-life (clinical; both) was 1.08 h and the Cmax (clinical; both, Cmax (M), mean, mean of patients, maintenance analysis Week 4) was 2.02e-06 M. The Cmax (clinical; both, Cmax (T), mean, mean of patients, termination analysis Week 9) was 1.88e-06 M, the AUC (clinical; Patient 1, maintenance analysis Week 4) was 314 ng·h/mL and the AUC (clinical; Patient 2, maintenance analysis Week 4) was 589 ng·h/mL. It also gave an AUC (clinical; Patient 3, maintenance analysis Week 4) of 1000 ng·h/mL, an AUC (clinical; Patient 4, maintenance analysis Week 4) of 927 ng·h/mL and an AUC (clinical; Patient 5, maintenance analysis Week 4) of 436 ng·h/mL. It also gave an AUC (clinical; Patient 6, maintenance analysis Week 4) of 551 ng·h/mL, an AUC (clinical; Patient 7, maintenance analysis Week 4) of 52 ng·h/mL and an AUC (clinical; Patient 8, maintenance analysis Week 4) of 500 ng·h/mL. For the same molecule, the AUC(0-t) (clinical; Patient 1, termination analysis Week 9) was 246 ng·h/mL, the AUC(0-t) (clinical; Patient 2, termination analysis Week 9) was 2300 ng·h/mL and the AUC(0-t) (clinical; Patient 3, termination analysis Week 9) was 1450 ng·h/mL. The AUC(0-t) (clinical; Patient 4, termination analysis Week 9) was 482 ng·h/mL, the AUC(0-t) (clinical; Patient 5, termination analysis Week 9) was 398 ng·h/mL and the AUC(0-t) (clinical; Patient 6, termination analysis Week 9) was 901 ng·h/mL. It also gave an AUC(0-t) (clinical; Patient 7, termination analysis Week 9) of 118 ng·h/mL, an AUC(0-t) (clinical; Patient 8, termination analysis Week 9) of 350 ng·h/mL and a Cmax (clinical; Cmax (M), Patient 1, maintenance analysis Week 4) of 1.1e-06 M. The Cmax (clinical; Cmax (M), Patient 2, maintenance analysis Week 4) was 1.2e-06 M, the Cmax (clinical; Cmax (M), Patient 3, maintenance analysis Week 4) was 3.5e-06 M and the Cmax (clinical; Cmax (M), Patient 4, maintenance analysis Week 4) was 3.9e-06 M. It also gave a Cmax (clinical; Cmax (M), Patient 5, maintenance analysis Week 4) of 1.4e-06 M, a Cmax (clinical; Cmax (M), Patient 6, maintenance analysis Week 4) of 1.5e-06 M and a Cmax (clinical; Cmax (M), Patient 7, maintenance analysis Week 4) of 2e-07 M. It also gave a Cmax (clinical; Cmax (M), Patient 8, maintenance analysis Week 4) of 1.7e-06 M, a Cmax (clinical; Cmax (T), Patient 1, termination analysis Week 9) of 7e-07 M and a Cmax (clinical; Cmax (T), Patient 2, termination analysis Week 9) of 3.8e-06 M. The Cmax (clinical; Cmax (T), Patient 3, termination analysis Week 9) was 3.9e-06 M, the Cmax (clinical; Cmax (T), Patient 4, termination analysis Week 9) was 1.6e-06 M and the Cmax (clinical; Cmax (T), Patient 5, termination analysis Week 9) was 1e-06 M. It also gave a Cmax (clinical; Cmax (T), Patient 6, termination analysis Week 9) of 2.5e-06 M, a Cmax (clinical; Cmax (T), Patient 7, termination analysis Week 9) of 4e-07 M and a Cmax (clinical; Cmax (T), Patient 8, termination analysis Week 9) of 1.3e-06 M.
